Patent US20050203187A1, “Formulations useful for the treatment of varicella zoster virus infections and methods for the use thereof” (priority 1998, published 2005)
≈ marks a conversion by molar mass, not a printed value. Entries after “also recorded” stand apart in the source; their conditions may differ. Where two headings read alike, the source gives them in different places.

How the values were obtained:
herpes and other viruses = conditions: cited from earlier work
herpes labialis (HSV-1) = conditions: 10% suspended in aqueous system with non-ionic surfactant and carrier; cited from earlier work
[1] = tested on: simian immunodeficiency virus (SIV); conditions: 12% cream, intravaginal application before exposure, six monkeys tested; cited from earlier work
[2] = Topical relief of muscle and joint pain in persons; format: in vivo, human; conditions: ibuprofen 5%, ketoprofen 3% (2-5%) in jojoba alcohol with 1% alpha-d-tocopherol, several drops
Description: Some persons using these medications experience gastrointestinal side effects.
(§1) The oil was tested on several persons for relief of minor muscle and joint pains.
(§2) The oil was tested topically on several persons for relief of minor muscle and joint pains.

[3] = ibuprofen 5%, ketoprofen 3%, lactic acid 5%, testosterone 1% in jojoba alcohol; malic acid 0.8%, citric acid 0.5% lotion; Viracol A Plus one drop
Description: Testosterone is a primary male hormone produced in the testes with effects on muscles, bones and sexual function. Testosterone replacement therapy for men with a deficiency, sometimes referred to as hypoganadism, is currently available in topical patches. […] This transdermal delivery technology can also be applied to corresponding estrogenic steroids such as estradiol for women.
as §1, §2
Malic Acid also known as hydroxysuccinic acid, occurs naturally in apples and is sometimes referred to as apple acid. It is used as a general purpose acidulent in food products.
For the next 8 days […] spread 1-2 drops twice each day on the 2.5 inch diameter outbreak of small blisters on […] arm, and 4-6 drops twice each day on the blisters at […] waist.

Varicella Zoster Virus [4] = assay: Varicella zoster virus replication in cultures of human foreskin fibroblast cells; format: cell-based; conditions: for EC50: Human alphaherpesvirus 3, read-out: EC50 effective concentration required to inhibit viral replication by 50%; for EC50 / EC90: VZV in HFF cells; for EC90: Human alphaherpesvirus 3, read-out: EC90 effective concentration required to inhibit viral replication by 90%; for replication of varicella zoster virus in human cell cultures: statement in words
Description: (§3) Human foreskin fibroblast (HFF) cells obtained from newborns were prepared and suspended in minimum essential medium (MEM) and supplemented with 10% fetal bovine serum (FBS). […] Drug concentrations were diluted six times from 100 μg/ml down to 0.03 μg/ml in MEM/FBS solution. A selective index of 10 is considered significant.

[5] = Cytotoxicity in human foreskin fibroblast cells; format: cell-based
Description: Human foreskin fibroblast (HFF) cells obtained from newborns were prepared and suspended in minimum essential medium (MEM) and supplemented with 10% fetal bovine serum (FBS). Freshly processed cells were incubated for 24 hours at 37° C. in well tissue culture plates in a CO2 incubator (E. R. Kern, J. Infect. Dis., 128:290 (1973)). Assays for cytotoxicity and varicella zoster virus replication were carried out in these culture wells following reported procedures (see, for example, R. J. Ryback and E. R. Kern et al, Antimicrobial Agents and Chemotherapy, 44:1506 (2000); Y. L. Qiu et al, J. Med. Chem., 41: 10 (1998); and Y. L. Qiu et al, J. Med. Chem., 41: 5257 (1998)). Drug concentrations were diluted six times from 100 μg/ml down to 0.03 μg/ml in MEM/FBS solution. A selective index of 10 is considered significant.

varicella zoster virus [6] = assay: Shingles episode in a person; conditions: oral 400 mg 2×/day
Varicella zoster virus [7] = assay: Varicella zoster virus replication in cultures of human foreskin fibroblast cells; format: cell-based; conditions: human; VZV in HFF cells; read-out: SI selective index of CC50/EC50
Description: as §3

herpes simplex virus-1 = conditions: rabbit kidney cell cultures; cited from earlier work

O=C(O)CCC(=O)O [Succinic acid, Succinic Acid]
viral replication inhibition activity in cell cultures (herpes and other viruses): viral replication inhibition activity

O=C(O)CC(O)C(=O)O (stereo not drawn) [Malic Acid, hydroxysuccinic acid]
viral replication inhibition activity in cell cultures (herpes and other viruses): viral replication inhibition activity

CCCCCCCCCCCCCCCCCCCCCCO [n-docosanol, n-Docosanol]
mean healing time of lesions (herpes labialis (HSV-1)): shortened
monkeys in which transmission was prevented [1]: five

CC(C(=O)O)c1cccc(C(=O)c2ccccc2)c1 (stereo not drawn) [Ketoprofen, 3-benzoyl-alpha-methylbenzeneacetic acid]
pain relief on topical application [2]: relieving pain
pain relief on topical application ([2]; listed as ketoprofen): successfully relieved pain

C[C@]12CC[C@H]3[C@@H](CCC4=CC(=O)CC[C@@]43C)[C@@H]1CC[C@@H]2O [testosterone, Testosterone]
absorption into human skin, residue, irritation [3]: leaves no residue

CC(O)C(=O)O (stereo not drawn) [Lactic Acid]
viral replication inhibition activity in cell cultures (herpes and other viruses): viral replication inhibition activity

CC(C)Cc1ccc(C(C)C(=O)O)cc1 (stereo not drawn) [Ibuprofen, alpha-methyl-4(2-methylpropyl)benzeneacetic acid]
pain relief on topical application [2]: successfully relieved pain; also recorded: relieving pain

CC(=O)C(=O)O [Pyruvic acid, Pyruvic Acid]
viral replication inhibition activity in cell cultures (herpes and other viruses): viral replication inhibition activity

Nc1nc2c(ncn2COCCO)c(=O)[nH]1 [Acyclovir, reference compound]
EC50 (Varicella Zoster Virus [4]): 0.04 µg/mL (≈ 0.178 µM)
EC90 (Varicella Zoster Virus [4]): 0.09 µg/mL (≈ 0.4 µM)
CC50 ([5]; stationary HFF cells): > 100 µg/mL
side effects (varicella zoster virus [6]): diarrhea and headache
change in shingles (varicella zoster virus [6]; after several days): no change

O=C(O)/C=C/C(=O)O [Fumaric acid, trans 2-butenedioic acid]
EC50 (Varicella Zoster Virus [4]): 0.15 µg/mL (≈ 1.29 µM)
EC90 (Varicella Zoster Virus [4]): 0.6 µg/mL (≈ 5.17 µM)
replication of varicella zoster virus in human cell cultures (Varicella Zoster Virus [4]): inhibit replication
selectivity ratio (Varicella zoster virus [7]): > 666
CC50 [5]: > 100 µg/mL
viral replication inhibition activity in cell cultures (herpes and other viruses): viral replication inhibition
herpes simplex virus-1 replication (herpes simplex virus-1): inhibitors

O=C(O)CC(O)(CC(=O)O)C(=O)O [Citric Acid]
viral replication inhibition activity in cell cultures (herpes and other viruses): viral replication inhibition activity

O=C(O)CC(=O)O [Malonic acid, propanedioic acid]
EC50 (Varicella Zoster Virus [4]): < 0.03 µg/mL
EC90 (Varicella Zoster Virus [4]): < 0.03 µg/mL
replication of varicella zoster virus in human cell cultures (Varicella Zoster Virus [4]): inhibit replication
selectivity ratio (Varicella zoster virus [7]): > 3330
CC50 [5]: > 100 µg/mL
herpes simplex virus-1 replication (herpes simplex virus-1): inhibitors

O=C(O)CO [Glycolic Acid]
viral replication inhibition activity in cell cultures (herpes and other viruses): viral replication inhibition activity
